# In US10722514B2 (FLX Bio, Inc., priority 2017, dated 2020):
# pIC50: −log10 of the molar value. Structures can show the parent of a compound that is named as a salt.
# Target: T1, recombinant full-length USP7 (Homo sapiens, UniProt Q93009)
# T1 construct: A 25 μl reaction volume containing recombinant full-length USP7 (62 pM)
# Test: USP7-mediated ubiquitin-rhodamine cleavage assay
# Format: biochemical
# Settings: recombinant full-length USP7 62 pM; ubiquitin-rhodamine 100 nM; 30-minute incubation with compound, 1 hour reaction at room temperature; read-out: Potency: USP7 IC50
# In short: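 IC50 values came from fluorescence measured after a 1 h room-temperature reaction of 62 pM enzyme with 100 nM ubiquitin-rhodamine, following 30 min compound preincubation; fits used four parameters.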
# T1 sequence (Q93009 whole entry): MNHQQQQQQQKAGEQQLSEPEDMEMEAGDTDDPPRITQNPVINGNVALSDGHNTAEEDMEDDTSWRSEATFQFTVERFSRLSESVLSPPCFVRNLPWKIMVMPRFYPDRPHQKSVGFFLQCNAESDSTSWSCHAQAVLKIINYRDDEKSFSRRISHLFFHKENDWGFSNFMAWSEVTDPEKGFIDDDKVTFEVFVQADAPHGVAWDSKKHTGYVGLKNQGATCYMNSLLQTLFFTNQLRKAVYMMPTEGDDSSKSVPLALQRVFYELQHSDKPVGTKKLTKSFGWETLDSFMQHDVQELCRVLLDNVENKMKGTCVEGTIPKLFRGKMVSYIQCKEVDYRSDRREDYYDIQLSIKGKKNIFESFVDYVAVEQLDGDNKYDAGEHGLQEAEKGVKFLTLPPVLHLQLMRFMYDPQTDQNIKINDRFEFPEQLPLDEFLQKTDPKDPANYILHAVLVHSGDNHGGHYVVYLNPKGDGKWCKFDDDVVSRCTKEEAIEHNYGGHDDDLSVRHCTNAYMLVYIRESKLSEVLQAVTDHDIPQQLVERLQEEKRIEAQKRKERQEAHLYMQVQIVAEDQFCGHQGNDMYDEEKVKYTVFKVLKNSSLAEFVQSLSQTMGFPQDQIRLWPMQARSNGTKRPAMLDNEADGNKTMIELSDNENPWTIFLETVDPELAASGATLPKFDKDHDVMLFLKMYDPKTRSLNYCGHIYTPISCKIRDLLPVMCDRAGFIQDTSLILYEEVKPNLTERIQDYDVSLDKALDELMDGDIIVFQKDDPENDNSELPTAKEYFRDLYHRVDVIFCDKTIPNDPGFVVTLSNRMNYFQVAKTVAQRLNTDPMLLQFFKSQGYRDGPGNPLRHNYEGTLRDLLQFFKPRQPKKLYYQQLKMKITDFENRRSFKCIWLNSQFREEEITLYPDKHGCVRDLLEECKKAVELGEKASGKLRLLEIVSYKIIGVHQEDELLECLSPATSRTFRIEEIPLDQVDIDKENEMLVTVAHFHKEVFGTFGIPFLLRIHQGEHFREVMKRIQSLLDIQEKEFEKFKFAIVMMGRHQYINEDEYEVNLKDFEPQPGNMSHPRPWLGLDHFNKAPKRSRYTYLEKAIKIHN
row,SMILES,pIC50
1,"Cc1cc(Cl)cc(-c2ccnc3cc(Cn4c(=O)ccn(C)c4=O)sc23)c1O[C@@H]1CNC[C@@H]1F [Example 151, 3-((7-(5-Chloro-2-(((3R,4S)-4-fluoropyrrolidin-3-yl)oxy)-3-methylphenyl)thieno[3,2-b]pyridin-2-yl)methyl)-1-methylpyrimidine-2,4(1H,3H)-dione]",> 6.00
2,"Cc1cc(Cl)cc(-c2ccnc3cc(CN4C(=O)CCC4=O)sc23)c1OC1CN2CCC1CC2 (stereo not drawn) [Example 318, 1-[[7-(5-chloro-3-methyl-2-quinuclidin-3-yloxy-phenyl)thieno[3,2-b]pyridin-2-yl]methyl]pyrrolidine-2,5-dione; 2,2,2-trifluoroacetic acid]",> 6.00
3,"Cc1cc(Cl)cc(-c2ccnc3cc([C@H](C)N4C(=O)CCC4=O)sc23)c1O[C@H]1CCCNC1 [Example 241, 1-((S)-1-(7-(5-Chloro-3-methyl-2-(((S)-piperidin-3-yl)oxy)phenyl)thieno[3,2-b]pyridin-2-yl)ethyl)pyrrolidine-2,5-dione]",> 6.00
4,"Cc1cc(Cl)cc(-c2ccnc3cc(CO)sc23)c1O[C@@H]1CCC[C@H]1N [Example 75, (7-(2-(((1R,2R)-2-Aminocyclopentyl)oxy)-5-chloro-3-methylphenyl)thieno[3,2-b]pyridin-2-yl)methanol]",4.52 to 5.00
5,"CCN1C[C@H]2C[C@@H]1[C@H](Oc1c(C)cc(Cl)cc1-c1ccnc3cc(CN4C(=O)C5C(C4=O)C5(C)C)sc13)C2 (stereo partly drawn) [Example 332, 3-[[7-[5-chloro-2-[[(1S,4R,5R)-3-ethyl-3-azabicyclo[2.2.1]heptan-5-yl]oxy]-3-methyl-phenyl]thieno[3,2-b]pyridin-2-yl]methyl]-6,6-dimethyl-3-azabicyclo[3.1.0]hexane-2,4-dione]",> 6.00
6,"Cc1cc(Cl)cc(-c2ccnc3cc(Cn4c(=O)ccn(CC(F)(F)F)c4=O)sc23)c1O[C@H]1C[C@H](N2CCOCC2)C1 [Example 278, 3-((7-(5-Chloro-3-methyl-2-((1r,3r)-3-morpholinocyclobutoxy)phenyl)thieno[3,2-b]pyridin-2-yl)methyl)-1-(2,2,2-trifluoroethyl)pyrimidine-2,4(1H,3H)-dione]",> 6.00
7,"Cc1cc(C#N)cc(-c2ccnc3cc(CO)sc23)c1OCC1(C#N)CNC1 [Example 11, 3-((4-Cyano-2-(2-(hydroxymethyl)thieno[3,2-b]pyridin-7-yl)-6-methylphenoxy)methyl)azetidine-3-carbonitrile]",5.00 to 6.00
8,"Cc1cc(Cl)cc(-c2ccnc3cc(Cn4c(=O)ccn(CC(F)(F)F)c4=O)sc23)c1OC1(C(F)(F)F)CCCNC1 (stereo not drawn) [Example 274, 3-((7-(5-Chloro-3-methyl-2-((3-(trifluoromethy)piperidin-3-yl)oxy)phenyl)thieno[3,2-b]pyridin-2-yl)methyl)-1-(2,2,2-trifluoroethyl)pyrimidine-2,4(1H,3H)-dione]",> 6.00
9,"Cc1cc(Cl)cc(-c2ncnc3cc(CN4C(=O)C5C(C4=O)C5(C)C)sc23)c1O[C@@H]1C[C@@H]2C[C@H]1N(C)C2 (stereo partly drawn) [Example 390, 3-[[4-[5-chloro-3-methyl-2-[[(1S,4R,5R)-3-methyl-3-azabicyclo[2.2.1]heptan-5-yl]oxy]phenyl]thieno[3,2-d]pyrimidin-6-yl]methyl]-6,6-dimethyl-3-azabicyclo[3.1.0]hexane-2,4-dione dihydrochloride]",> 6.00
10,"Cc1cc(Cl)cc(-c2ccnc3cc(CO)sc23)c1OC1CCC12CNC2 (stereo not drawn) [Example 49, (7-(2-((2-Azaspiro[3.3]heptan-5-yl)oxy)-5-chloro-3-methylphenyl)thieno[3,2-b]pyridin-2-yl)methanol]",5.00 to 6.00
11,"Cn1nc2c(c1C1Cc3cc(Cl)cc(-c4ccnc5cc(CN6C(=O)C7C(C6=O)C7(C)C)sc45)c3O1)CNCC2 [Example 387, 3-[[7-[(2R)-5-chloro-2-(2-methyl-4,5,6,7-tetrahydropyraozlo[4,3-c]pyridin-3-yl)-2,3-dihydrobenzofuran-7-yl]thieno[3,2-b]pyridin-2-yl]methyl]-6,6-dimethyl-3-azabicyclo[3.1.0]hexane-2,4-dione dihydrochloride]",> 6.00
12,"Cc1cc(Cl)cc(-c2ccnc3cc(CO)sc23)c1O[C@@H]1CC[C@@H](N)C1 [Example 90, (7-(2-(((1R,3R)-3-Aminocyclopentyl)oxy)-5-chloro-3-methylphenyl)thieno[3,2-b]pyridin-2-yl)methanol]",5.00 to 6.00
13,"Cc1cc(Cl)cc(-c2ccnc3cc(CN4C(=O)CN(C)C4=O)sc23)c1OCC1(C)CNC1 [Example 25, 3-((7-(5-Chloro-3-methyl-2-((3-methylazetidin-3-yl)methoxy)phenyl)thieno[3,2-b]pyridin-2-yl)methyl)-1-methylimidazolidine-2,4-dione]",> 6.00
14,"CCC(O)c1cc2nccc(-c3cc(Cl)cc(C)c3OCC3(F)CNC3)c2s1 (stereo not drawn) [Example 35, 1-(7-(5-Chloro-2-((3-fluoroazetidin-3-yl)methoxy)-3-methylphenyl)thieno[3,2-b]pyridin-2-yl)propan-1-ol]",5.00 to 6.00
15,"Cc1cc(Cl)cc(-c2ccnc3cc(CN4C(=O)OC(C)(C)C4=O)sc23)c1O[C@H]1CCCNC1 [Example 311, 3-[[7-[5-chloro-3-methyl-2-[[(3S)-3-piperidyl]oxy]phenyl]thieno[3,2-b]pyridin-2-yl]methyl]-5,5-dimethyl-oxazolidine-2,4-dione; 2,2,2-trifluoroacetic acid]",> 6.00
16,"Cc1cc(Cl)cc(-c2ccnc3cc(CO)sc23)c1OC[C@@H]1CCN1 [Example 18, (S)-(7-(2-(Azetidin-2-ylmethoxy)-5-chloro-3-methylphenyl)thieno[3,2-b]pyridin-2-yl)methanol]",4.52 to 5.00
17,"Cc1cc(Cl)cc(-c2ccnc3cc(CO)sc23)c1OCC1CCNC1 (stereo not drawn) [Example 70, (7-(5-Chloro-3-methyl-2-(pyrrolidin-3-ylmethoxy)phenyl)thieno[3,2-b]pyridin-2-yl)methanol]",4.52 to 5.00
18,"CCC(O)c1cc2ncnc(-c3cc(Cl)cc(C)c3OCC3(C)CNC3)c2s1 (stereo not drawn) [Example 47, 1-(4-(5-chloro-3-methyl-2-((3-methylazetidin-3-yl)methoxy)phenyl)thieno[3,2-d]pyrimidin-6-yl)propan-1-ol]",5.00 to 6.00

# Same assay, conditions: recombinant full-length USP7 62 pM; ubiquitin-rhodamine 100 nM; 30-minute incubation, 1 hour reaction at room temperature; read-out: Potency (USP7 IC50)
row,SMILES,pIC50
1,"COC1CCN(C2CC(Oc3c(C)cc(Cl)cc3-c3ccnc4cc(Cn5c(=O)ccn(CC(F)(F)F)c5=O)sc34)C2)C1 (stereo not drawn) [Example 684, 3-[[7-[5-chloro-2-[3-(3-methoxypyrrolidin-1-yl)cyclobutoxy]-3-methyl-phenyl]thieno[3,2-b]pyridin-2-yl]methyl]-1-(2,2,2-trifluoroethyl)pyrimidine-2,4-dione; 2,2,2-trifluoroacetic acid]",> 6.00

# Same assay, conditions: recombinant full-length USP7 62 pM; ubiquitin-rhodamine 100 nM; 30-minute pre-incubation, 1 hour reaction at room temperature; read-out: Potency (USP7 IC50)
row,SMILES,pIC50
1,"Cc1cc(Cl)cc(-c2ccnc3cc(Cn4c(=O)cc(C(F)(F)F)n(C)c4=O)sc23)c1O[C@H]1CCCNC1 [Example 515, 3-[[7-[5-chloro-3-methyl-2-[[(3S)-3-piperidyl]oxy]phenyl]thieno[3,2-b]pyridin-2-yl]methyl]-1-methyl-6-(trifluoromethyl)pyrimidine-2,4-dione; 2,2,2-trifluoroacetic acid]",> 6.00
2,"Cc1cc(Cl)cc(-c2ncnc3cc(Cn4c(=O)ccn(CC(F)(F)F)c4=O)sc23)c1O[C@@H]1CCNC[C@H]1C [Example 561, 3-[[4-[5-chloro-3-methyl-2-[[(3R,4R)-3-methyl-4-piperidyl]oxy]phenyl]thieno[3,2-d]pyrimidin-6-yl]methyl]-1-(2,2,2-trifluoroethyl)pyrimidine-2,4-dione]",> 6.00
3,"Cc1cc(Cl)cc(-c2ccnc3cc(Cn4c(=O)ccn(C)c4=O)sc23)c1O[C@@H]1CC[C@@](C)(N)C1 [Example 518, 3-[[7-[2-[(1R,3R)-3-amino-3-methyl-cyclopentoxy]-5-chloro-3-methyl-phenyl]thieno[3,2-b]pyridin-2-yl]methyl]-1-methyl-pyrimidine-2,4-dione; 2,2,2-trifluoroacetic acid]",> 6.00
4,"CCN1CCCC(Oc2c(C)cc(Cl)cc2-c2ccnc3cc(Cn4c(=O)ccn(C)c4=O)sc23)C1 (stereo not drawn) [Example 504, 3-[[7-[5-chloro-2-[(1-ethyl-3-piperidyl)oxy]-3-methyl-phenyl]thieno[3,2-b]pyridin-2-yl]methyl]-1-methyl-pyrimidine-2,4-dione]",> 6.00
5,"Cc1cc(Cl)cc(-c2ccnc3cc(Cn4c(=O)ccn(CC(F)(F)F)c4=O)sc23)c1O[C@@H]1CCN(CC(F)F)C[C@@H]1C [Example 642, 3-[[7-[5-chloro-2-[[(3S,4R)-1-(2,2-difluoroethyl)-3-methyl-4-piperidyl]oxy]-3-methyl-phenyl]thieno[3,2-b]pyridin-2-yl]methyl]-1-(2,2,2-trifluoroethyl)pyrimidine-2,4-dione]",> 6.00
6,"Cc1cc(Cl)cc(-c2ccnc3cc(CN4C(=O)CCC4=O)sc23)c1OC1CC(C)(N)C1 (stereo not drawn) [Example 444, 1-[[7-[2-(3-amino-3-methyl-cyclobutoxy)-5-chloro-3-methyl-phenyl]thieno[3,2-b]pyridin-2-yl]methyl]pyrrolidine-2,5-dione dihydrochloride]",> 6.00
7,"Cc1cc(Cl)cc(-c2ccnc3cc(Cn4c(=O)ccn(C)c4=O)sc23)c1OC1CC(NCCO)C1 (stereo not drawn) [Example 532, 3-[[7-[5-chloro-2-[3-(2-hydroxyethylamino)cyclobutoxy]-3-methyl-phenyl]thieno[3,2-b]pyridin-2-yl]methyl]-1-methyl-pyrimidine-2,4-dione; 2,2,2-trifluoroacetic acid]",> 6.00
8,"Cc1cc(Cl)cc(-c2ccnc3cc(Cn4c(=O)ccn(CC(F)(F)F)c4=O)sc23)c1OC1CNCC[C@@]1(C)F (stereo partly drawn) [Example 405, 3-[[7-[5-chloro-2-[[(4R)-4-fluoro-4-methyl-3-piperidyl]oxy]-3-methyl-phenyl]thieno[3,2-b]pyridin-2-yl]methyl]-1-(2,2,2-trifluoroethyl)pyrimidine-2,4-dione; 2,2,2-trifluoroacetic acid]",> 6.00
